17 molecules from PubChem BioAssay (NCI) can be followed below.

“And” between values parts separate entries of the source, which are not always exact repeats. Identical values can stand only once.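 Grown in 96-well plates, cells were treated for 48 hours with each compound at five concentrations. Insufficient inhibition: endpoint recorded as highest concentration tested. Here, GI50 denotes the concentration required for 50% inhibition of growth. At the TGI there is no net growth.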

Test systems include MDA-N; RPMI-8226 leukemia; OVCAR-5 ovarian; UACC-257 melanoma; HCC-2998 colon; MALME-3M melanoma; SR leukemia; 786-0 renal; OVCAR-4 ovarian; KM20L2 colon; HOP-18 NSCLC; M19-MEL melanoma; RXF-631 renal.
What all share (assay): growth of human tumour cells (NCI), 48 h

On to `NS(=O)(=O)c1c(O)c2ccccc2oc1=O`, for which the TGI in the experiment on MDA-N, in the experiment with RPMI-8226 leukemia, with OVCAR-5 ovarian, with UACC-257 melanoma, with HCC-2998 colon and in the experiment on MALME-3M melanoma was greater than 100 µM each time. For the same molecule, the TGI with SR leukemia, in the experiment with 786-0 renal and in the experiment with OVCAR-4 ovarian was greater than 100 µM in each case.

Turning to `CC1=C(C(=O)NNC(=O)C[N+](C)(C)C)CC(C(=O)NNC(=O)C[N+](C)(C)C)=C(C)N1`, the TGI with MDA-N, with RPMI-8226 leukemia, in the experiment with OVCAR-5 ovarian, with UACC-257 melanoma, with HCC-2998 colon and with SR leukemia was greater than 100 µM in each case. The TGI in the experiment on 786-0 renal and with OVCAR-4 ovarian was greater than 100 µM each time.

Consider `CCOC(=O)c1c(C)n(-c2ccc(C)cc2)c(=O)c2ccccc2c(=O)c2c(=O)ccc(=O)c1=2`, for which the TGI is 24.9 µM in the experiment on RPMI-8226 leukemia; 75.5 µM in the experiment with OVCAR-5 ovarian; 51.2 µM with UACC-257 melanoma; 27.7 µM in the experiment on HCC-2998 colon; 32.5 µM in the experiment with MALME-3M melanoma; greater than 100 µM in the experiment with 786-0 renal. The TGI in the experiment with OVCAR-4 ovarian is 58.5 µM.

`C/C=C(/CCC1NCCc2c1[nH]c1ccccc21)[Si](C)(C)C` (centres undefined): the TGI with OVCAR-5 ovarian is > 100 µM and 14.6 µM; with KM20L2 colon, > 100 µM and 11.8 µM; in the experiment on HOP-18 NSCLC, 24.2 µM; in the experiment on M19-MEL melanoma, > 100 µM and 10.1 µM; in the experiment on OVCAR-4 ovarian it was > 100 µM and 11.9 µM; in the experiment with RXF-631 renal, > 100 µM and 22.9 µM.

As for `NC(Cc1cc(I)c(Oc2ccc(O)c(I)c2)c(I)c1)C(=O)O` (centres undefined), the TGI is greater than 100 µM with MDA-N; 84 µM in the experiment on RPMI-8226 leukemia; greater than 100 µM in the experiment on OVCAR-5 ovarian; greater than 100 µM with UACC-257 melanoma; greater than 100 µM with MALME-3M melanoma; greater than 100 µM in the experiment with 786-0 renal. Besides, the TGI in the experiment with OVCAR-4 ovarian is greater than 100 µM.

In the case of `Fc1ccc2c(c1)SC1=Nc3sc4cc(F)ccc4[n+]3CN12`, the TGI is 8.45 µM in the experiment on RPMI-8226 leukemia; greater than 100 µM in the experiment with OVCAR-5 ovarian; 92.1 µM in the experiment on UACC-257 melanoma; 47.5 µM in the experiment on HCC-2998 colon; 47.1 µM with MALME-3M melanoma; 47.4 µM with 786-0 renal. In the experiment with OVCAR-4 ovarian, this molecule returned a TGI of 72.4 µM.

For the molecule `NCCCCNOCCCN`, the TGI in the experiment on MDA-N, in the experiment on RPMI-8226 leukemia, with OVCAR-5 ovarian, in the experiment with UACC-257 melanoma, with HCC-2998 colon and in the experiment with MALME-3M melanoma was greater than 100 µM in each case. Also, the TGI in the experiment with SR leukemia and with OVCAR-4 ovarian was greater than 100 µM throughout.

On to `COC(=O)C1=C(O)C(C(=O)OC)[C@@]2(O)[C@@H](C(=O)OC)[C@H](C)C[C@@H]1[C@@H]2C(=O)OC` (some centres undefined), for which the TGI is 31.4 µM with MDA-N; 71.5 µM in the experiment on RPMI-8226 leukemia; 98.9 µM in the experiment on OVCAR-5 ovarian; greater than 100 µM in the experiment on UACC-257 melanoma; 30.9 µM with HCC-2998 colon; greater than 100 µM in the experiment on MALME-3M melanoma. This molecule also yielded a TGI in the experiment with SR leukemia greater than 100 µM.

For `O=c1c(-c2ccccc2)c(SCCCN2CCCCC2)n(-c2ccccc2)c(=S)n1-c1ccccc1`, the TGI is 37.7 µM in the experiment on RPMI-8226 leukemia; greater than 100 µM in the experiment on OVCAR-5 ovarian; 31.9 µM in the experiment on UACC-257 melanoma; 16.8 µM in the experiment on HCC-2998 colon; 37.7 µM in the experiment on MALME-3M melanoma; 37.3 µM in the experiment with SR leukemia. Further, the TGI in the experiment with OVCAR-4 ovarian is 58 µM.

For `CC(C)(CCCCC(C)(C)NC1=NCCO1)NC1=NCCO1`, the TGI with MDA-N, in the experiment on RPMI-8226 leukemia, in the experiment on OVCAR-5 ovarian, in the experiment on HCC-2998 colon, in the experiment on MALME-3M melanoma and in the experiment with SR leukemia was greater than 10 µM in each case. Further, the TGI in the experiment on OVCAR-4 ovarian was greater than 10 µM.

In the case of `C(=C\c1cc[n+](CCc2ccccc2)cc1)/c1ccccc1`, the TGI with RPMI-8226 leukemia is 53.2 µM; with OVCAR-5 ovarian, 88.5 µM; in the experiment with UACC-257 melanoma it was 17.5 µM; in the experiment with MALME-3M melanoma, 28.6 µM; with 786-0 renal it was greater than 100 µM; in the experiment on OVCAR-4 ovarian, 50.9 µM.

Take `O=c1c2ccccc2nc2n1CCc1c-2[nH]c2ccccc12`: the TGI in the experiment with MDA-N is 28.5 µM; in the experiment with RPMI-8226 leukemia, greater than 100 µM; with OVCAR-5 ovarian, 31.2 µM; with MALME-3M melanoma it was 73.7 µM; in the experiment with SR leukemia, greater than 100 µM; in the experiment with OVCAR-4 ovarian, 43.8 µM. For the same molecule, the GI50 in the experiment on OVCAR-4 ovarian is 18.9 µM.

Turning to `O=[N+]([O-])c1ccc(N/N=C\c2cc(Br)ccc2O)nc1`, the GI50 in the experiment with RPMI-8226 leukemia is 0.753 µM; in the experiment with OVCAR-5 ovarian, 5.51 µM; in the experiment on HCC-2998 colon, 3.18 µM; with SR leukemia, 0.463 µM; in the experiment with OVCAR-4 ovarian it was 0.543 µM. Further, the TGI in the experiment with RPMI-8226 leukemia is greater than 100 µM; in the experiment on OVCAR-5 ovarian, greater than 100 µM; in the experiment on HCC-2998 colon it was greater than 100 µM; in the experiment on SR leukemia, greater than 100 µM; with OVCAR-4 ovarian, 4.02 µM.

Turning to `COC(=O)C(C)NP(=O)(OCc1cccc(Cn2cnc3c(N)ncnc32)c1)Oc1ccccc1` (centres undefined), the GI50 with RPMI-8226 leukemia was greater than 100 µM; with OVCAR-5 ovarian, greater than 100 µM; in the experiment with UACC-257 melanoma it was greater than 100 µM; in the experiment on HCC-2998 colon, 10.9 µM; with MALME-3M melanoma, 68.2 µM; in the experiment on SR leukemia it was 55.4 µM. Also, in the experiment on OVCAR-4 ovarian, the GI50 is greater than 100 µM. For the same molecule, the TGI was greater than 100 µM with RPMI-8226 leukemia; greater than 100 µM with OVCAR-5 ovarian; greater than 100 µM in the experiment on UACC-257 melanoma; 53.7 µM with HCC-2998 colon; greater than 100 µM with MALME-3M melanoma; greater than 100 µM in the experiment with SR leukemia. Moreover, the TGI in the experiment on OVCAR-4 ovarian was greater than 100 µM.

Turning to `NCCc1ccc(S(=O)(=O)O)cc1[N+](=O)[O-]`, the TGI in the experiment on MDA-N, with RPMI-8226 leukemia, with OVCAR-5 ovarian, with UACC-257 melanoma, in the experiment on MALME-3M melanoma and in the experiment with SR leukemia was greater than 100 µM throughout. Further, the TGI in the experiment with 786-0 renal and in the experiment on OVCAR-4 ovarian was greater than 100 µM each time.

With `COc1cc(CCN)c(OC)c(OC)c1`, the TGI with MDA-N, with RPMI-8226 leukemia, in the experiment with OVCAR-5 ovarian, in the experiment on UACC-257 melanoma, with MALME-3M melanoma and in the experiment on SR leukemia was greater than 100 µM in each case. For the same molecule, the TGI in the experiment with 786-0 renal and in the experiment with OVCAR-4 ovarian was greater than 100 µM each time.

On to `CC(C)C(=O)Cc1ccc2ccccc2n1`, for which the TGI with MDA-N is greater than 100 µM; in the experiment on RPMI-8226 leukemia it was 19.9 µM; with OVCAR-5 ovarian it was greater than 100 µM; in the experiment with UACC-257 melanoma, greater than 100 µM; in the experiment with HCC-2998 colon, greater than 100 µM; in the experiment with MALME-3M melanoma, greater than 100 µM. For the same molecule, the TGI with 786-0 renal and in the experiment on OVCAR-4 ovarian was greater than 100 µM throughout.
